# Reference: patent publication US20230096766A1, “AMINO ACID HAVING FUNCTIONAL GROUP CAPABLE OF INTERMOLECULAR HYDROGEN BONDING, PEPTIDE COMPOUND CONTAINING SAME AND METHOD FOR PRODUCTION THEREOF” (Chugai Seiyaku Kabushiki Kaisha, priority 2018, published 2023)
# *1 amine or outer side, *2 acyl side, *3 side chain or, on linkers, in order; H or OH if unused. Where a SMILES comes first, the peptide text is derived from it. Bridges are numbered along the chain shown (N, C = ends). [ ]: non-standard residue; d: D form. The star is where a group is joined. ξ: configuration not given here. dhPhe(4-CONHMe,3-OMe) = CNC(=O)c1ccc(CC[C@@H](N)C(=O)O)cc1OC; NMePhe(3-Cl) = CN[C@@H](Cc1cccc(Cl)c1)C(=O)O; X12 = O=C([C@H](CCCC(O)C(F)(F)F)N[*:1])[*:2]; Tyr(3-OMe) = COc1cc(C[C@H](N)C(=O)O)ccc1O; NMeW = CN[C@@H](Cc1c[nH]c2ccccc12)C(=O)O; NMehPhe = CN[C@@H](CCc1ccccc1)C(=O)O; X6 = O=C([C@H](CCCCO)N[*:1])[*:2]; Hyp = O=C(O)[C@@H]1C[C@@H](O)CN1; NMeF = CN[C@@H](Cc1ccccc1)C(=O)O; NMeGABA = CN(CCCC(=O)[*:2])[*:1]; NMeI = CC[C@H](C)[C@H](NC)C(=O)O; NMeβAla = CN(CCC(=O)[*:2])[*:1]; Butyl(3-Me,3-OH) = CC(C)(O)CC*; NMeD = CN[C@@H](CC(=O)O)C(=O)O; CH2CONHtBu = CC(C)(C)NC(=O)C*; NMeL = CN[C@@H](CC(C)C)C(=O)O; Butyl(3R-OH) = C[C@@H](O)CC*; Butyl(3S-OH) = C[C@H](O)CC*; NMeV = CN[C@H](C(=O)O)C(C)C; NMeA = CN[C@@H](C)C(=O)O; Piperidide = C1CCN(*)CC1; CH2CMe2OH = CC(C)(O)C*; NBuGly = CCCCNCC(=O)O; NPrGly = CCCNCC(=O)O; Ethyl(2-OH) = OCC*; ξS = NC(CO)C(=O)O; Sar = CNCC(=O)O; tBu = CC(C)(C)*
# Experiment: in vitro
# Conditions: human, Caco-2, Caco-2 (cm/sec)
row,SMILES,Papp
1,CC(C)C[C@@H]1NC(=O)[C@H](C)N(C)C(=O)C[C@@H](C(=O)N2CCCCC2)NC(=O)[C@H](CC(C)C)N(C)C(=O)CN(C)C(=O)[C@H]([C@@H](C)O)NC(=O)[C@H](Cc2ccccc2)N(C)C(=O)[C@H](Cc2ccccc2)N(C)C(=O)[C@H](CC(C)C)NC(=O)[C@H](Cc2ccccc2)N(C)C(=O)[C@H](CC(C)C)N(C)C1=O [pd204] ([NMeA]L[NMeL][NMeF]L[NMeF][NMeF]T[Sar][NMeL]D-Piperidide; lactam N-11),2 ×10⁻⁶ cm/s
2,CCCN1CC(=O)N(C)[C@@H](CC(C)C)C(=O)N[C@@H](COCC(=O)NC(C)(C)C)C(=O)N(C)[C@@H](CC(C)C)C(=O)N(C)[C@@H](C)C(=O)N[C@H](C(=O)N2CCCCC2)CC(=O)N[C@H](CC(C)C)C(=O)N(C)[C@@H](CC(C)C)C(=O)N[C@@H](Cc2ccccc2)C(=O)N(C)[C@@H](CCc2ccccc2)C(=O)N[C@@H]([C@@H](C)O)C1=O [AP13] ([dL][NMeL]F[NMehPhe]T[NPrGly][NMeL]S(CH2CONHtBu)[NMeL][NMeA]D-Piperidide; lactam N-11),0.32 ×10⁻⁶ cm/s
3,"CC[C@H](C)[C@@H]1NC(=O)[C@H](C(C)C)N(C)C(=O)CCCN(C)C(=O)C[C@@H](C(=O)N2CCCCC2)NC(=O)[C@H](CC(C)C)N(C)C(=O)[C@H](CC(C)C)N(C)C(=O)[C@H]([C@@H](C)O)NC(=O)[C@H](CC(C)C)N(C)C(=O)[C@H](COCCC(C)(C)O)NC(=O)[C@H](Cc2cccc(Cl)c2)N(C)C(=O)[C@H](Cc2ccccc2)N(C)C1=O [AP54] ([NMeGABA][NMeV]I[NMeF][NMePhe(3-Cl)]S(Butyl(3-Me,3-OH))[NMeL]T[NMeL][NMeL]D-Piperidide; lactam N-11)",1.4 ×10⁻⁶ cm/s
4,"CNC(=O)c1ccc(CC[C@H]2NC(=O)[C@H](CC(C)C)N(C)C(=O)CCCN(C)C(=O)C[C@@H](C(=O)N3CCCCC3)NC(=O)[C@H](CC(C)C)N(C)C(=O)[C@H](CC(C)C)N(C)C(=O)[C@H]([C@@H](C)O)NC(=O)[C@H](CC(C)C)N(C)C(=O)[C@H](COC(C)(C)C)NC(=O)[C@H](Cc3ccccc3)N(C)C(=O)[C@H](CC(C)C)N(C)C2=O)cc1OC [AP211] ([NMeGABA][NMeL][dhPhe(4-CONHMe,3-OMe)][NMeL][NMeF]S(tBu)[NMeL]T[NMeL][NMeL]D-Piperidide; lactam N-11)",0.36 ×10⁻⁶ cm/s
5,CC[C@H](C)[C@@H]1NC(=O)[C@H](CC(C)C)N(C)C(=O)CCCN(C)C(=O)C[C@@H](C(=O)N2CCCCC2)NC(=O)[C@H](CC(C)C)N(C)C(=O)[C@H](CC(C)C)N(C)C(=O)[C@H]([C@@H](C)O)NC(=O)[C@H](CC(C)C)N(C)C(=O)[C@H](Cc2ccc(O)c(OC)c2)NC(=O)[C@H](CC(C)C)N(C)C(=O)[C@H](Cc2ccccc2)N(C)C1=O [Compound E03] ([NMeGABA][NMeL]I[NMeF][NMeL][Tyr(3-OMe)][NMeL]T[NMeL][NMeL]D-Piperidide; lactam N-11),0.18 ×10⁻⁶ cm/s
6,CC(C)C[C@H]1C(=O)N[C@@H](Cc2ccc(O)cc2)C(=O)N(C)CC(=O)N(C)[C@@H](C)C(=O)N(C)[C@@H](CC(C)C)C(=O)N[C@@H](COC(C)(C)C)C(=O)N(C)[C@@H](C(C)C)C(=O)N[C@H](C(=O)N2CCCCC2)CC(=O)N(C)CC(=O)N(C)[C@@H](Cc2ccccc2)C(=O)N[C@@H](C(C)C)C(=O)N1C [pd115] ([Sar][NMeF]V[NMeL]Y[Sar][NMeA][NMeL]S(tBu)[NMeV]D-Piperidide; lactam N-11),0.22 ×10⁻⁶ cm/s
7,CC(C)C[C@H]1NC(=O)C[C@@H](C(=O)N2CCCCC2)NC(=O)[C@H](CC(C)C)N(C)C(=O)[C@H](Cc2ccccc2)NC(=O)[C@H](Cc2ccccc2)N(C)C(=O)[C@H]([C@@H](C)O)NC(=O)[C@H](CC(C)C)N(C)C(=O)[C@@H]2C[C@@H](OCCO)CN2C(=O)[C@H](CC(C)C)N(C)C(=O)[C@H](COC(C)(C)C)NC(=O)[C@@H]2CCCN2C1=O [AP234] ([dL]PS(tBu)[NMeL][Hyp](Ethyl(2-OH))[NMeL]T[NMeF]F[NMeL]D-Piperidide; lactam N-11),1.3 ×10⁻⁶ cm/s
8,CCCN1CC(=O)N(C)[C@@H](Cc2cccc(Cl)c2)C(=O)N(C)[C@@H](CC(C)C)C(=O)N[C@@H](CCCCO)C(=O)N(C)[C@@H](CC(C)C)C(=O)N[C@H](C(=O)N2CCCCC2)CC(=O)N(C)CC(=O)N(C)[C@@H](CCc2ccccc2)C(=O)N[C@@H](C(C)C)C(=O)N(C)[C@@H](CC(C)C)C(=O)N[C@@H]([C@@H](C)O)C1=O [Compound B08] ([Sar][NMehPhe]V[NMeL]T[NPrGly][NMePhe(3-Cl)][NMeL][X6][NMeL]D-Piperidide; lactam N-11),0.15 ×10⁻⁶ cm/s
9,CCCN1CC(=O)N(C)[C@@H](CC(C)C)C(=O)N[C@H](C(=O)N2CCCCC2)CC(=O)N(C)[C@@H](C)C(=O)N[C@@H](CC(C)C)C(=O)N(C)[C@@H](CC(C)C)C(=O)N(C)[C@@H](Cc2ccccc2)C(=O)N[C@@H](COCC(C)(C)O)C(=O)N(C)[C@@H](Cc2ccccc2)C(=O)N(C)[C@@H]([C@@H](C)CC)C(=O)N[C@@H]([C@@H](C)O)C1=O [AP06] ([NMeA]L[NMeL][NMeF]S(CH2CMe2OH)[NMeF][NMeI]T[NPrGly][NMeL]D-Piperidide; lactam N-11),0.033 ×10⁻⁶ cm/s
10,CC(C)C[C@@H]1NC(=O)[C@H](Cc2ccccc2)N(C)C(=O)[C@H](C)N(C)C(=O)C[C@@H](C(=O)N2CCCCC2)N(C)C(=O)[C@H](Cc2ccccc2)N(C)C(=O)[C@H](Cc2ccccc2)N(C)C(=O)[C@H](COC(C)(C)C)NC(=O)[C@H](C(C)C)N(C)C(=O)CN(C)C(=O)[C@H]([C@@H](C)O)NC(=O)[C@H](CC(C)C)N(C)C1=O [pd202] ([NMeA][NMeF]L[NMeL]T[Sar][NMeV]S(tBu)[NMeF][NMeF][NMeD]-Piperidide; lactam N-11),2.1 ×10⁻⁶ cm/s
11,CC(C)C[C@@H]1NC(=O)[C@H](Cc2ccccc2)N(C)C(=O)[C@H](CC(C)C)N(C)C(=O)CCN(C)C(=O)C[C@@H](C(=O)N2CCCCC2)NC(=O)[C@H](CC(C)C)N(C)C(=O)[C@H](Cc2ccccc2)N(C)C(=O)[C@H]([C@@H](C)O)NC(=O)[C@H](Cc2ccccc2)N(C)C1=O [pd207] ([NMeβAla][NMeL][NMeF]L[NMeF]T[NMeF][NMeL]D-Piperidide; lactam N-9),1.7 ×10⁻⁶ cm/s
12,CC(C)C[C@H]1C(=O)N[C@@H](C(C)C)C(=O)N(C)[C@@H](CCc2ccccc2)C(=O)N(C)[C@@H](CCc2ccccc2)C(=O)N[C@@H](CCCCO)C(=O)N(C)[C@@H](CC(C)C)C(=O)N[C@@H]([C@@H](C)O)C(=O)N(C)[C@@H](CC(C)C)C(=O)N(C)[C@@H](CC(C)C)C(=O)N[C@H](C(=O)N2CCCCC2)CC(=O)N(C)CCCC(=O)N1C [Compound B04] ([NMeGABA][NMeL]V[NMehPhe][NMehPhe][X6][NMeL]T[NMeL][NMeL]D-Piperidide; lactam N-11),0.07 ×10⁻⁶ cm/s
13,CC(C)C[C@H]1C(=O)N[C@@H](COCC[C@@H](C)O)C(=O)N(C)[C@@H](Cc2ccccc2)C(=O)N(C)[C@@H](Cc2cccc(Cl)c2)C(=O)N[C@@H](COC(C)(C)C)C(=O)N(C)[C@@H](CC(C)C)C(=O)N[C@@H]([C@@H](C)O)C(=O)N(C)[C@@H](CC(C)C)C(=O)N(C)[C@@H](CC(C)C)C(=O)N[C@H](C(=O)N2CCCCC2)CC(=O)N(C)CCCC(=O)N1C [AP115] ([NMeGABA][NMeL]S(Butyl(3R-OH))[NMeF][NMePhe(3-Cl)]S(tBu)[NMeL]T[NMeL][NMeL]D-Piperidide; lactam N-11),0.27 ×10⁻⁶ cm/s
14,CCCCN1CC(=O)N(C)[C@@H](CC(C)C)C(=O)N[C@@H]([C@@H](C)CC)C(=O)N(C)[C@@H](Cc2ccccc2)C(=O)N[C@@H]([C@@H](C)O)C(=O)N(CCCC)CC(=O)N(C)[C@@H](CC(C)C)C(=O)N(C)[C@@H](Cc2ccccc2)C(=O)N[C@@H](COCC(=O)NC(C)(C)C)C(=O)N(C)[C@@H](C)C(=O)N[C@H](C(=O)N2CCCCC2)CC1=O [AP19] ([NBuGly][NMeL]I[NMeF]T[NBuGly][NMeL][NMeF]S(CH2CONHtBu)[NMeA]D-Piperidide; lactam N-11),0.88 ×10⁻⁶ cm/s
15,CC[C@H](C)[C@H]1C(=O)N[C@@H]([C@@H](C)O)C(=O)N(C)CC(=O)N(C)[C@@H](CC(C)C)C(=O)N[C@H](C(=O)N2CCCCC2)CC(=O)N(C)[C@@H](CC(C)C)C(=O)N[C@@H](CC(C)C)C(=O)N(C)[C@@H](CC(C)C)C(=O)N(C)[C@@H](Cc2c[nH]c3ccccc23)C(=O)N[C@@H](CC(C)C)C(=O)N(C)[C@@H](Cc2ccccc2)C(=O)N1C [pd111] ([NMeL]L[NMeL][NMeW]L[NMeF][NMeI]T[Sar][NMeL]D-Piperidide; lactam N-11),0.16 ×10⁻⁶ cm/s
16,CC(C)C[C@H]1C(=O)N[C@@H]([C@@H](C)O)C(=O)N(C)[C@@H](CC(C)C)C(=O)N(C)[C@@H](CC(C)C)C(=O)N[C@H](C(=O)N2CCCCC2)CC(=O)N(C)CCCC(=O)N(C)[C@@H](C(C)C)C(=O)NC(COCC[C@H](C)O)C(=O)N(C)[C@@H](Cc2ccccc2)C(=O)N(C)[C@@H](Cc2cccc(Cl)c2)C(=O)N[C@@H](COC(C)(C)C)C(=O)N1C (stereo partly drawn) [AP101] ([NMeGABA][NMeV][ξS](Butyl(3S-OH))[NMeF][NMePhe(3-Cl)]S(tBu)[NMeL]T[NMeL][NMeL]D-Piperidide; lactam N-11),0.59 ×10⁻⁶ cm/s

# Same assay, conditions: human, Caco-2, Caco-2 (membrane permeability)
row,SMILES,Papp
1,CCCN1CC(=O)N(C)[C@@H](CC(C)C)C(=O)N[C@H](C(=O)N2CCCCC2)CC(=O)N(C)[C@@H](CC(C)C)C(=O)N[C@@H](CCC(=O)NC)C(=O)N(C)[C@@H](CC(C)C)C(=O)N(C)[C@@H](Cc2ccccc2)C(=O)N[C@@H](CC(C)C)C(=O)N(C)[C@@H](Cc2ccccc2)C(=O)N(C)[C@@H]([C@@H](C)CC)C(=O)N[C@@H]([C@@H](C)O)C1=O [Compound J03] ([NMeL]E(NHMe)[NMeL][NMeF]L[NMeF][NMeI]T[NPrGly][NMeL]D-Piperidide; lactam N-11),0.21 ×10⁻⁶ cm/s
2,CC(C)C[C@H]1C(=O)N[C@@H](CCCC(O)C(F)(F)F)C(=O)N(C)[C@@H](Cc2cccc(Cl)c2)C(=O)N(C)[C@@H](Cc2ccccc2)C(=O)N[C@@H](COC(C)(C)C)C(=O)N(C)[C@@H](CC(C)C)C(=O)N[C@@H]([C@@H](C)O)C(=O)N(C)[C@@H](CC(C)C)C(=O)N(C)[C@@H](CC(C)C)C(=O)N[C@H](C(=O)N2CCCCC2)CC(=O)N(C)CCCC(=O)N1C (stereo partly drawn) [Compound D02] ([NMeGABA][NMeL][X12][NMePhe(3-Cl)][NMeF]S(tBu)[NMeL]T[NMeL][NMeL]D-Piperidide; lactam N-11),0.14 ×10⁻⁶ cm/s
